Test [1] concerns MCF-7 human breast cancer cells. Description: MTT cell viability assay, MCF-7. Format: cell-based. Conditions: for IC50: Homo sapiens, MCF7, MTT, 72 h, mean ± SD of three experiments; for SI MCF-7: ratio of IC50 values for normal (MCF-10A) and cancer cells (MCF-7). Here is the method: (§1) The three cell lines adopted in this work (MCF-7, MDA-MB-231 and MCF-10A) were obtained from the American Type Culture Collection (ATCC, Manassas, VA, USA). MCF-7 human breast cancer cells were cultured in Dulbecco’s modified Eagle’s medium/nutrient mixture Ham F-12 (DMEM/F12), added with 10% fetal bovine serum (FBS) and 100 U mL^−1 penicillin/streptomycin. MDA-MB-231 human breast cancer cells were maintained in DMEM/F12 added with 5% FBS, 1% L-glutamine and 100 U mL^−1 penicillin/streptomycin. MCF-10A human mammary epithelial cells were cultured in DMEM/F12 medium added with 5% horse serum (HS, Thermo Fisher Scientific, Milan, Italy), 100 U mL^−1 penicillin/streptomycin, 0.5 mg mL^−1 hydrocortisone, 20 ng mL^−1 human epidermal growth factor (hEGF), 10 mg mL^−1 insulin, and 0.1 mg mL^−1 cholera enterotoxin (Sigma–Aldrich, Milan, Italy). Cells were cultured at 37 °C in a humidified atmosphere (95% air and 5% CO2) and periodically screened for checking contamination.
(§2) The 3-(4,5-dimethylthiazol-2-y1)-2,5-diphenyltetrazolium Bromide (MTT, Sigma–Aldrich, Milan, Italy) assay was used for determining cell viability. Cells were seeded on forty-eight well plates and cultured in a complete medium. Next, cells were serum-deprived (24 h). Then, cells were exposed to the tested compounds in phenol-red-free medium added with 1% of serum for 72 h. After medium removal, MTT solution was added to each well (0.5 mg/mL) and incubated at 37 °C (2 h). Cells were lysed (DMSO), and the optical density was measured (570 nm) using a microplate reader. Mean absorbance was reported as a percentage versus control, and IC50 values were calculated using GraphPad Prism 8 software (version 8.4.3., GraphPad Inc., San Diego, CA, USA). The selectivity index was obtained by the ratio of IC50 values calculated for normal and cancer cells. Data represent three independent experiments; standard deviations (SD) were reported.

In test [2] the test system is MDA-MB-231 human breast cancer cells. Description: MTT cell viability assay, MDA-MB-231. Conditions: Homo sapiens, MDA-MB-231; MTT, 72 h, mean ± SD of three experiments. Format: cell-based. How it is done:
as §1, §2

For test [3], the system named is microtubule network in MDA-MB-231 cells. Description: β-tubulin immunofluorescence. Format: cell-based, human. The settings on record: 1 µM, 24 h. How it is done: Cells grown on glass coverslips in full medium were serum-deprived for 24 h and exposed to 1 for 24 h at its IC50 value concentration. Cells were PBS-washed and fixed (cold methanol, 15 min, −20 °C), then primary antibody in blocking solution was added (4 °C/overnight), as described. The mouse anti-Bid (sc-373939) and anti-β-Actin (69879) and the rabbit anti-β Tubulin (9104) were obtained from Santa Cruz Biotechnology and employed at a 1:100 dilution. Coverslips were washed thrice with PBS, then the secondary antibody Alexa Fluor® 568 conjugate goat-anti-mouse and Alexa Fluor® 488 conjugate goat-anti-rabbit (1:500, Thermo Fisher Scientific, Waltham, MA, USA) was added. Nuclei were DAPI (Sigma Aldrich, Mila, Italy) stained (10 min, 0.2 μg/mL) and PBS washed thrice. For mitochondrial staining, cells were pre-incubated with prewarmed (37 °C) MitoTracker® Deep Red FM probe solution (MitoTracker® Mitochondrion-Selective Probes, Invitrogen European Headquarters, Paisley PA4 9RF, UK) for 20 min (fluorescence excitation = 644, fluorescence emission = 665). A fluorescence microscope (Leica DM 6000) and LAS-X software (Leica Application Suite X, 3.5.7.23225) were used to acquire and process all images.

Test [4] has as its system MCF-10A human mammary epithelial cells. Description: MTT cell viability assay, MCF-10A. Format: cell-based. The settings on record: 72 h, normal cells, mean ± SD of three experiments. How it is done:
as §1, §2

Another test has as its system tubulin. Description: In vitro tubulin polymerization assay. Format: biochemical. Conditions: 10 µM; for final OD350 value of tubulin polymerization: control reaction (DMSO) about 0.41. Here is the method: The tubulin polymerization inhibition was detected using the in vitro Tubulin Polymerization Assay Kit (EMD Millipore Corporation, Burlington, MA, USA), following the procedure previously published. Briefly, polymerization reactions were performed in 70 µL final volumes (60 µL of the 60 µM tubulin in 1xPB-GTP and 10 µL of the test substance dissolved in 1xPB-GTP). Paclitaxel and Vinblastine (both at 10 µM) and 1 (1 µM) were dissolved in DMSO. The turbidity variation was measured every 30 s at 350 nm for 90 min. Turbidity (absorbance) readings were used to determine the extent of polymerization [% inhibition = (1 − A350 sample/A350 control) × 100].

Regarding `CC[C@]1(O)C[C@@H]2CN(CCc3c([nH]c4ccccc34)[C@@](C(=O)OC)(c3cc4c(cc3OC)N(C)[C@H]3[C@@](O)(C(=O)OC)[C@H](OC(C)=O)[C@]5(CC)C=CCN6CC[C@]43[C@@H]65)C2)C1` [Vinblastine], in test [1], the IC50 worked out at 36.8 nM and the “SI MCF-7” value came to 0.13. The same compound came in with an IC50 in test [2] of 130 nM. The microtubule network morphology entry in test [3] is listed as “accumulate in disorganized dotted structures (i.e., crystals)”. This compound gave an IC50 in test [4] of 17.2 nM. For the same compound, in the test with tubulin, the “effect on tubulin polymerization reaction” value is on record as “strongly inhibited”, the “time to reach the steady state of tubulin polymerization” value is 35 to 40 min and the “final OD350 value of tubulin polymerization” value was “about 0.2”.
With `Cc1c2ccncc2c(C)c2c1[nH]c1ccccc12` [Ellipticine], the IC50 was determined as 1300 ± 200 nM in test [1], 1900 ± 100 nM in test [2] and 1200 ± 300 nM in test [4]. Besides, in test [1], the “SI MCF-7” value was 0.9.
Consider `CC(=O)O[C@H]1C(=O)[C@@]2(C)[C@H]([C@H](OC(=O)c3ccccc3)[C@]3(O)C[C@H](OC(=O)[C@H](O)[C@@H](NC(=O)c4ccccc4)c4ccccc4)C(C)=C1C3(C)C)[C@]1(OC(C)=O)CO[C@@H]1C[C@@H]2O` [Paclitaxel], for which the results for the IC50 in test [1], in test [2] and in test [4] were 13 nM, 19 nM and 640 nM, respectively. For the same compound, the “SI MCF-7” value in test [1] amounted to 33.7. For the same compound, the microtubule network morphology entry in test [3] is “massive formation of tubulin bundles and bulker fibers”. The “final OD350 value of tubulin polymerization” value in the test on tubulin is “about 0.46”.

Values taken from paper PMC12030284, “Anti-Breast Cancer Properties and In Vivo Safety Profile of a Bis-Carbazole Derivative” (Pharmaceutics, 2025).
